One may read the IC50 as the concentration at which inhibition is half-maximal.

The test system of data set [1] is rabbit knee joint cartilage primary culture cells. Kind of data set: Proteoglycan degradation/release in rabbit knee joint cartilage primary culture cells (35S label). Format: cell-based. The conditions noted are these: for IC50: Oryctolagus cuniculus, read-out: proteoglycan degradation inhibition action (IC50). As to the method: After killing a rabbit (Japanese white species, male, 1.0 to 1.5 kg) under excess anesthesia, a knee joint was excised and the cartilage layer on the joint surface was removed and finely cut using a surgical knife. The cut pieces were treated with trypsin-EDTA (0.25%-1 mM; mfd. by GIBCO-BRL) at 37° C. for 1 hour and then centrifuged at 1,500 rpm for 5 minutes, and the resulting precipitate was washed with DMEM. This was treated with collagenase A (0.15%; Boehringer-Mannheim)/DMEM at 37° C. for 3 to 4 hours, and then a nylon mesh filter (100 μm, mfd. by Falcon)-passed fraction was centrifuged at 1,500 rpm for 5 minutes to effect precipitation of cartilage cells. The cells were thoroughly washed with DMEM/10% FBS medium, suspended in DMEM/10% FBS medium to a density of 2×10^5 cells/ml and then inoculated in 200 μl/well portions into an I type collagen-coated 96 well plate (mfd. by Asahi Technoglass). Three days thereafter, the medium was changed to 200 μof DMEM/10% FBS medium containing 50 μg/ml of ascorbic acid (ascorbic acid medium hereinafter), and the culturing was continued for 3 days. When an I type collagen-coated 6 well plate (Asahi Technoglass) was used, the cell suspension was inoculated in 6 ml/well portions and cultured by carrying out the same medium exchange. These cells were used in the following test.
The rabbit knee joint cartilage primary culture cells of 96 well plate described in Example 11-1 were cultured for 2 days using 200 μl of the ascorbic acid medium supplemented with 10 μCi/ml in final concentration of Na2^35SO4 and labeled therewith, washed 3 times with 200 μl of the ascorbic acid medium and then cultured for 1 day using 200 μl of the ascorbic acid medium. After stimulation with IL-1β or all-trans retinoic acid and subsequent 0, 24, and 48 hours of culturing, the culture supernatants were recovered in 20 μl portions, and the radioactivity was measured using Top Count (mfd. by Packard).
Each of the compounds A, B, C and D selected by the screening system of Example 10-2 was added to the proteoglycan degradation system of rabbit knee joint cartilage primary culture cells just before the stimulation with 10 μM of all-trans retinoic acid, and their proteoglycan degradation inhibitory activities were examined.

Data set [2] relates to MDTS6 mRNA. The data set is described as follows: Induction of MDTS6 mRNA expression in rabbit knee joint cartilage primary culture cells (RT-PCR). It is filed as cell-based. The conditions noted are these: 10 ng/ml of IL-1β or 10 μM of all-trans retinoic acid; 2 and 6 hours. As to the method: After 3 days of culturing of the rabbit knee joint cartilage primary culture cells of 6 well plate described in Example 11-1 by changing the medium to ascorbic acid medium, 10 ng/ml of IL-1β or 10 μM of all-trans retinoic acid was added thereto, and total RNA samples 2 and 6 hours thereafter were prepared using ISOGEN (mfd. by Nippon Gene) in accordance with the attached instructions. Each of the samples was treated with DNase I (mfd. by Nippon Gene), subjected to phenol/chloroform treatment and then recovered by ethanol precipitation, and the thus purified total RNA was dissolved in DEPC-treated sterile water. Using random hexamers as primers, 1 μg of this total RNA was subjected to reverse transcription reaction and RNase H treatment using Thermoscript™ RT-PCR System (mfd. by GIBCO-BRL, catalog number 11146-016) in accordance with the attached instructions, and the product was diluted 10 times with sterile water and used as a cDNA sample. Using 5 μl of each of the thus obtained cDNA samples as the template and the oligoDNA sequences represented by SEQ ID NO:18 and SEQ ID NO:19 as primers, PCR was carried out under a condition of 94° C. for 2 minutes, 45 repetitions of a cycle of 94° C. for 30 seconds, 65° C. for 30 seconds and 72° C. for 30 seconds, and subsequent 72° C. for 10 minutes. […]

Data set [3] relates to recombinant aggrecan G1G2. The data set is described as follows: Recombinant aggrecan G1G2 degradation by expressed MDTS6 proteins (western blotting). The conditions noted are these: method of Example 7-3, anti-aggrecanase neoepitope antibody. It is filed as biochemical, human. The method, then: In Example 6, the medium 12 to 16 hours after introduction of the expression plasmid was replaced by a serum-free medium, and the culturing was continued for 32 to 36 hours to recover the culture supernatant. This culture supernatant was mixed with the recombinant aggrecan prepared in the foregoing, and the mixture was allowed to undergo the reaction at 37° C. overnight, subjected to SDS-PAGE, transferred on a PVDF membrane and blocked by the method described in Example 6 and then allowed to react with an anti-Hisx6 polyclonal antibody (sc-803; mfd. by Santa Cruz Biotechnology) and a horseradish peroxidase-labeled goat anti-rabbit IgG polyclonal antibody (mfd. by BML) in that order. After the reaction, the recombinant aggrecan was detected using an ECL western blotting system (mfd. by Amersham Pharmacia). As a result, degraded fragment of the recombinant aggrecan, which was not found in the control in which only the […] was introduced, was detected (FIG. 2).
Aggrecanase is a metalloprotease which selectively cleaves aggrecan at the site between Glu^373 -Ala^374. An antibody capable of recognizing a C-side neoepitope generated by this cleavage was prepared in accordance with a usual method by repeating immunization of mouse with a conjugate of the synthetic peptide represented by SEQ ID NO:32 and KLH, 5 times. A PVDF membrane after transfer and blocking carried out in the same manner as in Example 7-2 was allowed to react with this antibody, allowed to react with a peroxidase-labeled goat anti-mouse IgG polyclonal antibody (mfd. by Tago) and then detected using an ECL western blotting detection system (mfd. by Amersham Pharmacia). As a result, the degraded product of recombinant aggrecan generated by MDTS6 reacted with the anti-aggrecanase neoepitope antibody, and molecular weight of the detected band is consistent with the molecular weight of the degraded product detected in Example 7-2 (FIG. 3). The same result was obtained by the BC-3 antibody which recognizes aggrecanase neoepitope (Hughes C. E. et al., Biochemical J., 305, 799-804, 1995). […]
On the technique in general: Immunoblotting shows a protein as a band on a membrane.

The mark [4] stands for this setting: compound added just before stimulation with 10 μM of all-trans retinoic acid.

Regarding `CC1=C(/C=C/C(C)=C/C=C/C(C)=C/C(=O)O)C(C)(C)CCC1` [all-trans retinoic acid, reference compound], the “release of proteoglycan (increase in radioactivity of culture supernatant)” value in data set [1] (stimulation with 0.01 to 10 ng/ml IL-1β or 0.1 to 10 μM all-trans retinoic acid, 0, 24, 48 hours of culturing) was “concentration-dependent and strong radioactivity, namely release of proteoglycan, was observed”. For the same molecule, the “expression of the MDTS6 mRNA” value in data set [2] is reported as “induced”.

On to `CNC(=O)[C@H](Cc1ccc(OC)cc1)NC(=O)C(CC(C)C)C(CSC)C(=O)NO` (stereo partly drawn) [compound D, N^α-[2-(1-hydroxycarbamoyl-2-methylsulfanylethyl)-4-methylpentanoyl]-N,O-dimethyltyrosineamide], for which the IC50 in data set [1] (setting [4]) came to 4.1 µM. As for `CNC(=O)C(Cc1ccc(OC)cc1)NC(=O)C(CC(C)C)C(CS)C(=O)NO` (stereo not drawn) [compound A, N-^α-[2-(1-hydroxycarbamoyl-2-sulfanylethyl)-4-methylpentanoyl]-N,O-dimethyltyrosineamide], the “inhibition of proteoglycan degradation (in words, FIG. 8)” value in data set [1] (setting [4]) is “inhibition of proteoglycan degradation in a concentration-dependent manner”. Regarding `CNC(=O)[C@H](Cc1ccc(OC)cc1)NC(=O)C(CC(C)C)C(CSc1ccccc1)C(=O)NO` (stereo partly drawn) [compound C, N^α-[2-(1-hydroxycarbamoyl-2-phenylsulfanylethyl)-4-methylpentanoyl]-N,O-dimethyltyrosineamide], in data set [1] (setting [4]), the IC50 worked out at 6.3 µM.

B1: MDTS6Cys: protein of amino acids 1st to 687th position of SEQ ID NO:1 with the polypeptide of SEQ ID NO:33 added to the C-terminus (protein)
chain: FVSIPRYVETLVVADESMVKFHGADLEHYLLTLLATAARLYRHPSILNPINIVVVKVLLLRDRDSGPKVTGNAALTLRNFCAWQKKLNKVSDKHPEYWDTAILFTRQDLCGATTCDTLGMADVGTMCDPKRSCSVIEDDGLPSAFTTAHELGHVFNMPHDNVKVCEEVFGKLRANHMMSPTLIQIDRANPWSACSAAIITDFLDSGHGDCLLDQPSKPISLPEDLPGASYTLSQQCELAFGVGSKPCPYMQYCTKLWCTGKAKGQMVCQTRHFPWADGTSCGEGKLCLKGACVERHNLNKHRVDGSWAKWDPYGPCSRTCGGGVQLARRQCTNPTPANGGKYCEGVRVKYRSCNLEPCPSSASGKSFREEQCEAFNGYNHSTNRLTLAVAWVPKYSGVSPRDKCKLICRANGTGYFYVLAPKVVDGTLCSPDSTSVCVQGKCIKAGCDGNLGSKKRFDKCGVCGGDNKSCKKVTGGSAAADYKDDDDK
As to B1, in data set [3], the “aggrecanase activity in culture supernatant” value (from here on “aggrecanase activity”) is listed as “detected”.

B2: MDTS6Pro: protein of amino acids 1st to 447th position of SEQ ID NO:1 with the polypeptide of SEQ ID NO:33 added to the C-terminus (protein)
chain: FVSIPRYVETLVVADESMVKFHGADLEHYLLTLLATAARLYRHPSILNPINIVVVKVLLLRDRDSGPKVTGNAALTLRNFCAWQKKLNKVSDKHPEYWDTAILFTRQDLCGATTCDTLGMADVGTMCDPKRSCSVIEDDGLPSAFTTAHELGHVFNMPHDNVKVCEEVFGKLRANHMMSPTLIQIDRANPWSACSAAIITDFLDSGHGDCLLDQPSKPISLPEDLPGASYTLSQQGSAAADYKDDDDK
As to B2, in data set [3], the “aggrecanase activity” value is reported as “not detected”.

B3: MDTS6Dis: protein of amino acids 1st to 518th position of SEQ ID NO:1 with the polypeptide of SEQ ID NO:33 added to the C-terminus (protein)
chain: FVSIPRYVETLVVADESMVKFHGADLEHYLLTLLATAARLYRHPSILNPINIVVVKVLLLRDRDSGPKVTGNAALTLRNFCAWQKKLNKVSDKHPEYWDTAILFTRQDLCGATTCDTLGMADVGTMCDPKRSCSVIEDDGLPSAFTTAHELGHVFNMPHDNVKVCEEVFGKLRANHMMSPTLIQIDRANPWSACSAAIITDFLDSGHGDCLLDQPSKPISLPEDLPGASYTLSQQCELAFGVGSKPCPYMQYCTKLWCTGKAKGQMVCQTRHFPWADGTSCGEGKLCLKGACVERHNLNKHRVDGSGSAAADYKDDDDK
Consider B3, for which the “aggrecanase activity” value in data set [3] was “not detected”.

For the origin of these results see US6716613B1, “Metalloprotease having aggrecanase activity” (Yamanouchi Pharmaceutical Co., Ltd., priority 1999, dated 2004).
